Results on 28 compounds are retold here after paper PMC12010006, “Subnanomolar MAS-related G protein-coupled receptor-X2/B2 antagonists with efficacy in human mast cells and disease models” (Signal Transduction and Targeted Therapy, 2025).

As usually defined, the Ki is a measure of affinity in units of concentration, obtained from inhibition or displacement.

What all share (assay type): cell-based
In experiment [1] the target is T1, MRGPRX2 (Homo sapiens, UniProt Q96LB1).
T1 sequence (Q96LB1 1-330): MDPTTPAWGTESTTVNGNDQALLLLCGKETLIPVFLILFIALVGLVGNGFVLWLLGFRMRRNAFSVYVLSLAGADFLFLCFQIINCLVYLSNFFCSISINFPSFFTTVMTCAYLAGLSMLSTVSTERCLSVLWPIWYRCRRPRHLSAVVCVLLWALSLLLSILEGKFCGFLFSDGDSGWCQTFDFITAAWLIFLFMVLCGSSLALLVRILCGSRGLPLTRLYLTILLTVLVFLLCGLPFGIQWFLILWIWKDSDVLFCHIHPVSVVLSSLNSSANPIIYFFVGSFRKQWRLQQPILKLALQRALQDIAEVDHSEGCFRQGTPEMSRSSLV
Nature of the experiment: β-arrestin recruitment assay (antagonist mode), β-arrestin-CHO cells recombinantly expressing MRGPRX2. Set-up: expressed in transfected cells. To be noted: for Ki: versus CST-14 (EC80 1,000 nM, EC50 483 nM), Cheng-Prusoff, read-out: β-Arrestin assay Ki ± SEM. For orientation: Arrestin recruitment assays detect the binding of arrestin to an activated receptor.

The target of experiment [2] is T1, MRGPRX2. Kind of experiment: β-arrestin assay (agonist mode), β-arrestin CHO cells recombinantly expressing MRGPRX2. The note with it: for EC50: agonist test, read-out: β-Arrestin assay EC50 ± SEM; for β-Arrestin assay % activation: normalized to CST-14 (EC80 5,000 nM). The source says:
Eurofins DiscoverX (Fremont, CA, USA) provided engineered Chinese hamster ovary (CHO) cells stably expressing β-arrestin-2 fused to a large β-galactosidase fragment (enzyme acceptor, EA). These CHO-K1-β-arrestin-2 cells were commercially available (93-0164). CHO-K1-β-arrestin-2 cells that additionally expressed MRGPRX1, -2, or -4 fused to the fragment ProLink™ (PK) were also purchased from the same company (93-0919C2, 93-0309C2, and 3-0541C2A, respectively). CHO cells expressing MRGPRX3 were generated as previously […].[31] The cells were grown in F-12 Ham Nutrient Mixture (Life Technologies) supplemented with 10% FBS, 100 U/mL of penicillin, 100 µg/mL of streptomycin (PAN-Biotech), 300 μg/mL of hygromycin B (PAN-Biotech), and 800 μg/mL of gentamicin (PAN-Biotech) at 37 °C and 5% CO2.).
The assays were carried out as previously described.[22] […] After 30 min of incubation at 37 °C and 5% CO2, Cortistatin-14 (CST-14, Bioscience, Bristol, United Kingdom) or another MRGPRX2 agonist that served as a standard agonist was added, and the mixture was incubated for 90 min at 37 °C and 5% CO2. Next, a detection reagent (50 µL, DiscoverX) was added, and the mixture was incubated at room temperature in the dark for 60 min. Chemiluminescence was measured on a Mithras LB 940 plate reader (Berthold Technologies, Bad Wildbad, Germany). The results represent means ± SEM of three to five independent experiments, each in duplicates.
^d β-Arrestin CHO cells recombinantly expressing MRGPRX2
^f Percentage of activation of normalized to CST-14 (EC80 5,000 nM)

The target in experiment [3] is T1, MRGPRX2. Nature of the experiment: Ca2+ mobilization assay, LN229 cells overexpressing MRGPRX2. The note with it: for Ki: versus CST-14 (EC80 800 nM, EC50 452 nM), Cheng-Prusoff, read-out: Ca2+ assay Ki ± SEM; for MRGPRX2 antagonistic potency in Ca2+ assay, in words: versus CST-14. The arrangement: expressed in transfected cells; host or cells: LN229 human glioblastoma cells; plasmid pLXSN-MRGPRX2 (Addgene #213960). The protocol: Glioblastoma LN229-MRGPRX2 stably expressing MRGPRX2 (produced by retroviral transfection) were seeded into black sterile 96-well microplates at a density of 5 × 10^4 cells/well in 200 µL of DMEM/F12-Nut Mix medium, supplemented with 10% FCS, 100 U/mL of penicillin 100 µg/mL of streptomycin, and 200 µg/mL of G418 and incubated for 18–22 h.
The next day Fluo-4 AM Solution (1 mM) (Thermo Fisher Scientific) was prepared and used to prepare cell loading dye solution consisting of 4970 µL of Hank’s Buffered Saline Solution (HBSS) buffer, 15 µL of 20% Pluronic-F and 15 µL of 1 mM Fluo-4 AM. Next, the cell medium was removed and exchanged for 40 µL of dye solution per well (final concentration of Fluo-4 AM: 3 µM). The cell plate was incubated for 60 min in the dark at room temperature, then the dye solution was removed and replaced by 189 µL HBSS. Subsequently, 1 µL of antagonist diluted in DMSO was added and incubated for 30 min at room temperature and in the dark (final DMSO concentration 0.5%, v/v). CST-14 or another agonist prepared in HBSS as well as carbachol (final concentration 100 µM) were pipetted (10 µL) using a FlexStation® 3 Multi-Mode Microplate Reader. For the determination of baseline fluorescence, HBSS buffer containing solvent of the investigated compound was used. Fluorescence was measured for 120 intervals of 1 s (number of flashes: 10) at a wavelength of 525 nm (excitation 485 nm) using the SoftMax® Pro5.1 Microplate Data Acquisition & Analysis Software. Three independent experiments were performed in duplicates. Measurements are provided in relative fluorescence units and normalized to the maximal effect of CST-14.

As to `CN(C)[C@@H]1CCN(c2cc(-c3ccccc3)nc3ccnn23)C1` [(R)-ZINC-3573, reference compound], the “EC80 of agonist, β-arrestin assay” value on MRGPRX2 [1] is 2 µM. Further, the EC50 on MRGPRX2 [1] (without antagonist, read-out: EC50 of (R)-ZINC-3573, shift assay) was 2020 ± 333 nM.
On to `CCc1c(C)[nH]c2nc3ccccc3n2c1=O` [Compound 2], for which, at MRGPRX2 [2], the EC50 is greater than 10 µM and the “β-Arrestin assay % activation” value was -2%. The Ki on MRGPRX2 [1] was 1050 nM. The Ki at MRGPRX2 [3] was determined as 238 nM.
Regarding `Cc1[nH]c2nc3ccccc3n2c(=O)c1C` [Compound 3], on MRGPRX2 [2], the EC50 was greater than 10 µM and the “β-Arrestin assay % activation” value was determined as 1%. Moreover, the Ki on MRGPRX2 [1] is 3780 nM. Further, the “fold decrease in potency” value on MRGPRX2 [3] (3-methyl compared to 3-ethyl (2)) was found to be 4 fold. On MRGPRX2 [3], the Ki came out at 1040 nM.
Turning to `Cc1cc(=O)n2c(nc3ccccc32)[nH]1` [Compound 4], on MRGPRX2 [2], the EC50 was greater than 10 µM and the “β-Arrestin assay % activation” value is on record as 0%.
On to `O=c1cc[nH]c2nc3ccccc3n12` [Compound 5, benzo[4,5]imidazo[1,2-α]pyrimidin-4(1H)-one], for which, at MRGPRX2 [2], the EC50 was greater than 10 µM and the “β-Arrestin assay % activation” value is -1%.
Consider `CCCc1cc(=O)n2c(nc3ccccc32)[nH]1` [Compound 6, 2-Propylbenzo[4,5]imidazo[1,2-a]pyrimidin-4(1H)-one], for which, on MRGPRX2 [2], the EC50 is greater than 10 µM and the “β-Arrestin assay % activation” value came to 1%. Further, on MRGPRX2 [1], the Ki stood at 4790 nM. Also, the inhibition constant Ki at MRGPRX2 [3] stood at 4730 nM.
On the same counts, the results for `CC(C)c1cc(=O)n2c(nc3ccccc32)[nH]1` [Compound 7] are greater than 10 µM, 0%, 1050 nM and 4260 nM.
Take `CCCc1[nH]c2nc3ccccc3n2c(=O)c1CC` [Compound 8]: the EC50 at MRGPRX2 [2] was greater than 10 µM. Further, the “β-Arrestin assay % activation” value at MRGPRX2 [2] is -1%. Further, the Ki on MRGPRX2 [1] is 90.5 ± 7.03 nM; on MRGPRX2 [3], 25.8 nM.
On the same counts, the results for `CCCc1[nH]c2nc3ccccc3n2c(=O)c1CCC` [Compound 9] are greater than 10 µM, -1%, 69.7 ± 20.8 nM and 16.6 ± 10.9 nM.
Turning to `CCc1c(C(C)C)[nH]c2nc3ccccc3n2c1=O` [Compound 10], on MRGPRX2 [2], the EC50 is greater than 10 µM and the “β-Arrestin assay % activation” value was -1%. Also, the Ki on MRGPRX2 [1] was 94.4 ± 63.8 nM. Further, at MRGPRX2 [3], the “fold increase in potency compared to hit compound 1” value came to 275 fold; the “MRGPRX2 antagonistic potency in Ca2+ assay, in words” value (“MRGPRX2 antagonistic potency” below) is on record as “subnanomolar potencies”; the inhibition constant (Ki) worked out at 0.895 nM.
On to `CCCc1c(C(C)C)[nH]c2nc3ccccc3n2c1=O` [Compound 11], for which, on MRGPRX2 [2], the EC50 was greater than 10 µM and the “β-Arrestin assay % activation” value is recorded as 1%. The Ki on MRGPRX2 [1] stood at 166 ± 69.7 nM. For the same compound, the Ki at MRGPRX2 [3] worked out at 43.3 ± 24.5 nM.
On to `CCc1c(CC(C)C)[nH]c2nc3ccccc3n2c1=O` [Compound 12], for which, on MRGPRX2 [2], the EC50 was greater than 10 µM and the “β-Arrestin assay % activation” value is reported as -2%. Moreover, on MRGPRX2 [1], the Ki stood at 152 ± 33.8 nM. Besides, the Ki at MRGPRX2 [3] came to 18.5 ± 13.7 nM.
Take `CCc1c(C(C)(C)C)[nH]c2nc3ccccc3n2c1=O` [Compound 13]: at MRGPRX2 [2], the EC50 was greater than 10 µM and the “β-Arrestin assay % activation” value was -1%. At MRGPRX2 [1], the Ki worked out at 113 ± 42.3 nM. In addition, the Ki on MRGPRX2 [3] was determined as 8.44 nM.
`CCc1c(C2CC2)[nH]c2nc3ccccc3n2c1=O` [Compound 14]: at MRGPRX2 [2], the EC50 was greater than 10 µM and the “β-Arrestin assay % activation” value worked out at 0%. Further, the Ki on MRGPRX2 [1] worked out at 384 ± 214 nM. Also, the inhibition constant (Ki) on MRGPRX2 [3] was 69.7 nM.
For `CCc1c(-c2ccccc2)[nH]c2nc3ccccc3n2c1=O` [Compound 15], on MRGPRX2 [2], the EC50 is greater than 10 µM and the “β-Arrestin assay % activation” value was found to be 0%. Also, the Ki at MRGPRX2 [1] worked out at 175 ± 49.5 nM. At MRGPRX2 [3], the Ki stood at 364 nM.
With `CCc1c(-c2cccs2)[nH]c2nc3ccccc3n2c1=O` [Compound 16], on MRGPRX2 [2], the EC50 is greater than 10 µM and the “β-Arrestin assay % activation” value was -2%.
As for `Cc1cc(=S)n2c(nc3ccccc32)[nH]1` [Compound 17], at MRGPRX2 [2], the EC50 was greater than 10 µM and the “β-Arrestin assay % activation” value is -3%.
Take `CC(C)c1cc(=S)n2c(nc3ccccc32)[nH]1` [Compound 18]: at MRGPRX2 [2], the EC50 was greater than 10 µM and the “β-Arrestin assay % activation” value is recorded as -1%. The Ki at MRGPRX2 [1] was 48.2 ± 1.08 nM. Moreover, at MRGPRX2 [3], the “fold increase in potency compared to 7” value is roughly 3000 fold and the Ki is 1.42 nM.
On to `CSc1cc(C(C)C)nc2nc3ccccc3n12` [Compound 19], for which, at MRGPRX2 [2], the EC50 was greater than 10 µM and the “β-Arrestin assay % activation” value is recorded as -1%. For the same compound, the “MRGPRX2 antagonistic potency” value at MRGPRX2 [3] is “completely inactive”.
In the case of `CCc1c(C)n(C)c2nc3ccccc3n2c1=O` [Compound 20], on MRGPRX2 [2], the EC50 is greater than 10 µM and the “β-Arrestin assay % activation” value is 1%. Besides, on MRGPRX2 [3], the “MRGPRX2 antagonistic potency” value is given as “not tolerated”.
As for `CC(C)c1cc(=O)n2c3ccccc3n(C)c2n1` [Compound 21], on MRGPRX2 [2], the EC50 was greater than 10 µM and the “β-Arrestin assay % activation” value is -1%. Besides, at MRGPRX2 [3], the “MRGPRX2 antagonistic potency” value is “not tolerated”.
`Cc1cc(=O)n2c(n1)oc1ccccc12` [Compound 22]: on MRGPRX2 [2], the EC50 is greater than 10 µM and the “β-Arrestin assay % activation” value came to 0%. Besides, the “MRGPRX2 antagonistic potency” value at MRGPRX2 [3] is “inactive”.
As to `Cc1cc(=O)n2c(n1)sc1ccccc12` [Compound 23], on MRGPRX2 [2], the EC50 was greater than 10 µM and the “β-Arrestin assay % activation” value is on record as -1%. Besides, the “MRGPRX2 antagonistic potency” value on MRGPRX2 [3] was “inactive”.
In the case of `CCc1c(C(C)C)[nH]c2nc3cc(Cl)c(Cl)cc3n2c1=O` [Compound 25], the EC50 on MRGPRX2 [2] is greater than 10 µM. In addition, the “β-Arrestin assay % activation” value on MRGPRX2 [2] was 1%. For the same compound, the Ki at MRGPRX2 [1] worked out at 155 ± 56.6 nM; on MRGPRX2 [3], 2.98 nM.
On the same counts, the results for `CCc1c(C(C)C)[nH]c2nc3cc(Br)c(Br)cc3n2c1=O` [Compound 26] are greater than 10 µM, -1%, 289 ± 119 nM and 13.3 nM.
With `CCc1c(C(C)C)[nH]c2nc3ccc(C)cc3n2c1=O` [Compound 28], on MRGPRX2 [2], the EC50 was greater than 10 µM and the “β-Arrestin assay % activation” value is given as -3%. Moreover, at MRGPRX2 [1], the Ki is 47.8 ± 9.77 nM. On MRGPRX2 [3], the “fold improved potency compared to 27” value is listed as 20 fold; the “MRGPRX2 antagonistic potency” value is “subnanomolar potencies”; the Ki is 0.322 nM.
With `CCc1c(C(C)C)[nH]c2nc3c(C)cccc3n2c1=O` [Compound 31], at MRGPRX2 [2], the EC50 is greater than 10 µM and the “β-Arrestin assay % activation” value was found to be 1%. Besides, at MRGPRX2 [3], the “MRGPRX2 antagonistic potency” value is given as “abolished antagonistic activity”.
As to `CN(C)CCCN1c2ccccc2CCc2ccc(Cl)cc21` [clomipramine, reference compound], on MRGPRX2 [1], the “EC80 of agonist, β-arrestin assay” value came to 13 µM.
